In assay [1] the test system is human neuroblastoma SH-SY5Y cells. Type of assay: cell-based. The settings on record: for EC50: read-out: EC50 cell viability.
Assay [2] shares this test system. As to the kind of experiment: Cell degeneration by microscopy images of treated cells. The format is cell-based. The settings on record: 24 h exposure, up to 200 μM.
The target of assay [3] is T1, porcine liver PMPMEase (Sus scrofa, UniProt Q29550).
T1 sequence (Q29550 19-566): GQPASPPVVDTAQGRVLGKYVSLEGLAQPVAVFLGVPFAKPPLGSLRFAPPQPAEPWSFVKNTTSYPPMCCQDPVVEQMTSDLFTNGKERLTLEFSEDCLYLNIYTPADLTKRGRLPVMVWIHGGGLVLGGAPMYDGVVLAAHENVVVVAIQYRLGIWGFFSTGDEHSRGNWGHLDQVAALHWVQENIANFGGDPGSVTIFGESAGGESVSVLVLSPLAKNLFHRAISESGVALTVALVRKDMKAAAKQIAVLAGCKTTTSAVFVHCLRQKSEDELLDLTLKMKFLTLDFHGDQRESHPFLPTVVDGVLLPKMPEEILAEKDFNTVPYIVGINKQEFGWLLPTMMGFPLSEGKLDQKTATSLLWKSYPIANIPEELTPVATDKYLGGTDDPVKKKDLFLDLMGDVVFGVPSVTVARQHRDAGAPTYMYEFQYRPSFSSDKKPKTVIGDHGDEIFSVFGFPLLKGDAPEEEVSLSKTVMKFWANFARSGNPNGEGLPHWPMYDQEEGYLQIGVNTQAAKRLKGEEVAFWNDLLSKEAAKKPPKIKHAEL
The settings on record: for Kobs/[I]: PMPMEase 82.5 μg, pre-incubation 0-30 min, 100-fold dilution, RD-PNB substrate.

The target of assay [4] is T1, porcine liver PMPMEase. The settings on record: for IC50: PMPMEase 1 μg, 15 min pre-incubation at 37°C, RD-PNB substrate.

The record followed here is PMC3313490 (Current Cancer Drug Targets, 2011).

Like-named read-outs stand apart in the source and are kept apart here.

For “2-trans-Geranylthioethanesulfonyl fluoride [Compound L-23]”, the EC50 (commonly the concentration that produces a half-maximal response) in assay [1] was determined as 144 µM. Also, the “Cell degeneration observed” value in assay [2] is “extensive degeneration”. At porcine liver PMPMEase [3], the “Kobs/[I]” value was 4100 M⁻¹ s⁻¹ and the “Kobs/[I] fold higher relative to PMSF” value is on record as “over 680 fold”. At porcine liver PMPMEase [4], the “IC50 fold lower relative to PMSF” value worked out at 56 fold.

Consider `CC(C)=CCC/C(C)=C/CC/C(C)=C/CSCCS(=O)(=O)F` [Compound L-28, 2-trans, trans-Farnesylthioethanesulfonyl fluoride], for which, in assay [1] (24 h exposure, serum-free DMEM/F12), the EC50 is 66.5 µM. The concentration for a half-maximal effect (EC50) in assay [1] (48 h exposure, serum-free DMEM/F12) amounted to 24.3 µM. Besides, the 50% effective concentration (EC50) in assay [1] (72 h exposure, serum-free DMEM/F12) amounted to 13.6 µM. The “Cell degeneration observed” value in assay [2] is “extensive degeneration”. At porcine liver PMPMEase [3], the “Kobs/[I]” value turned out to be 2000 M⁻¹ s⁻¹ and the “Kobs/[I] fold higher relative to PMSF” value is reported as more than 330 fold. Also, at porcine liver PMPMEase [4], the IC50 (usually the concentration needed to halve the response being measured) came to 0.048 µM and the “IC50 fold lower relative to PMSF” value is 37 fold.

On to `O=S(=O)(F)CCSc1ccccc1` [Compound L-50, Phenylthioethanesulfonyl fluoride], for which the “Kobs/[I]” value on porcine liver PMPMEase [3] is 180 M⁻¹ s⁻¹. The 50% inhibitory concentration (IC50) against porcine liver PMPMEase [4] came out at 0.066 µM.

`O=S(=O)(F)CCSCc1ccccc1` [Compound L-51, Benzylthioethanesulfonyl fluoride]: the “Kobs/[I]” value at porcine liver PMPMEase [3] worked out at 350 M⁻¹ s⁻¹. On porcine liver PMPMEase [3] (relative to L-28), the “Kobs/[I] fold lower than that for L-28” value is “over 5 fold”. Further, on porcine liver PMPMEase [4], the IC50 amounted to 0.047 µM.

As for `CCCCCCCCCCSCCS(=O)(=O)F` [Compound L-52, Decanylthioethanesulfonyl fluoride], on porcine liver PMPMEase [3], the “Kobs/[I]” value was found to be 1800 M⁻¹ s⁻¹. The molecule further showed an IC50 against porcine liver PMPMEase [4] of 0.13 µM.

Take `O=S(=O)(F)Cc1ccccc1` [PMSF, phenylmethylsulfonyl fluoride, reference compound]: the “Effect on viability of cultured cells” value in assay [1] (24 h exposure) is recorded as “no significant effect”. The “Cell degeneration observed” value in assay [2] is “did not show degeneration even at 200 μM”.
